# How the values were obtained:
# Plasmodium falciparum [1] = assay: Antimalarial activity against Plasmodium falciparum Nigerian; type: functional, organism-based
# [2] = system: Plasmodium vinckei petteri; assay: Antimalarial activity against Plasmodium vinckei petteri 279BY infected intraperitoneal dosed Swiss mice (Mus musculus); type: functional; settings: ip
# [3] = system: Plasmodium vinckei petteri; assay: Antimalarial activity against Plasmodium vinckei petteri 279BY infected peroral dosed Swiss mice (Mus musculus); type: functional; settings: po
# Plasmodium falciparum [4] = assay: microbe, parasite or virus in culture; settings: FCM29
# Description: Antimalarial activity against Plasmodium falciparum FCM29
# Plasmodium falciparum [5] = assay: microbe, parasite or virus in culture; settings: W2
# Description: Antimalarial activity against Plasmodium falciparum W2
Structure (SMILES),IC50 (Plasmodium falciparum [1]),IC50 (Plasmodium falciparum [4]),IC50 (Plasmodium falciparum [5]),ED50 [2],ED50 [3]
CC(=N)NCCCCCCCCCCCCNC(C)=N,,4 nM,8.1 nM,3.1 mg/kg,> 200 mg/kg
C/C(=N\OC(=O)c1ccccc1)NCCCCCCCCCCCCN/C(C)=N/OC(=O)c1ccccc1,68.7 nM,,,> 9 mg/kg,> 90 mg/kg
CCNC(=O)O/N=C(\C)NCCCCCCCCCCCCN/C(C)=N/OC(=O)NCC,93 nM,,,> 10 mg/kg,> 90 mg/kg
CCOP(=O)(OCC)O/N=C(\C)NCCCCCCCCCCCCN/C(C)=N/OP(=O)(OCC)OCC,9.6 nM,,,> 9 mg/kg,> 90 mg/kg
CC(=O)O/N=C(\C)NCCCCCCCCCCCCN/C(C)=N/OC(C)=O,1800 nM,,,7.1 mg/kg,> 90 mg/kg
C/C(=N\O)NCCCCCCCCCCCCN/C(C)=N/O,310 nM,,,9.2 mg/kg,90 mg/kg

# Second part, led by results:
IC50 (Plasmodium falciparum [1]),IC50 (Plasmodium falciparum [4]),IC50 (Plasmodium falciparum [5]),Structure (SMILES),ED50 [2],ED50 [3]
4350 nM,,,CO/N=C(\C)NCCCCCCCCCCCCN/C(C)=N/OC,> 10 mg/kg,110 mg/kg
7100 nM,,,Cc1noc(=O)n1CCCCCCCCCCCCn1c(C)noc1=O,> 9 mg/kg,62 mg/kg
135 nM,,,C/C(=N\OC(=O)Nc1ccccc1)NCCCCCCCCCCCCN/C(C)=N/OC(=O)Nc1ccccc1,10 mg/kg,> 90 mg/kg
12 nM,,,C/C(=N\OS(C)(=O)=O)NCCCCCCCCCCCCN/C(C)=N/OS(C)(=O)=O,4.7 mg/kg,42 mg/kg
